Measured values as given in US20240101546A1, “HETEROARYL-ACETYLENES, PHARMACEUTICAL COMPOSITIONS THEREOF, AND THEIR THERAPEUTIC APPLICATIONS” (Eubulus Biotherapeutics Inc., priority 2020, published 2024).

Tested on: lung cancer cell line NCI-H82
Test: Cell proliferation assay, NCI-H82 (CELL-TITER GLO)
Type: cell-based
Details: Homo sapiens, NCI-H82, 72 h, NCI-H82 cells, 72 h incubation, cell viability by CELL-TITER GLO, top concentration 1 μM; read-out: EC50, Inhibition of NCl-H82 Cell Proliferation
Summary of the method: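 NCI-H82 cells, 1,000 per well in RPMI1640, were treated after overnight plating with a 3-fold dilution series from 1 μM. Viability read by CellTiter-Glo luminescence after 72 h. EC50 derived from the curves.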

| SMILES | EC50 |
| --- | --- |
| C#Cc1nc(NC(=O)N[C@@H](CO)c2ccc(N3CCCCCC3)cc2)cs1 [Compound A137, (R)-1-(1-(4-(Azepan-1-yl)phenyl)-2-hydroxyethyl)-3-(2-ethynylthiazol-4-yl)urea] | ≤ 200 nM |
| C#Cc1nc(NC(=O)N[C@@H](CO)c2ccc(N3CCCCCC3=O)cc2)cs1 [Compound A138, (R)-1-(2-Ethynylthiazol-4-yl)-3-(2-hydroxy-1-(4-(2-oxoazepan-1-yl)phenyl)-ethyl)urea] | ≤ 200 nM |
| C#Cc1nc(NC(=O)N[C@@H](CO)c2ccc(N3CCCc4c3cnn4C)cc2)cs1 [Compound A139, (R)-1-(2-Ethynylthiazol-4-yl)-3-(2-hydroxy-1-(4-(1-methyl-1,5,6,7-tetrahydro-4H-pyrazolo[4,3-b]pyridin-4-yl)phenyl)ethyl)urea] | ≤ 200 nM |
| C#Cc1nc(NC(=O)N[C@@H](CO)c2ccc(N3CCCc4nn(C)cc43)cc2)cs1 [Compound A140, (R)-1-(2-Ethynylthiazol-4-yl)-3-(2-hydroxy-1-(4-(2-methyl-2,5,6,7-tetrahydro-4H-pyrazolo[4,3-b]pyridin-4-yl)phenyl)ethyl)urea] | ≤ 200 nM |
| C#Cc1nc(NC(=O)N[C@@H](CO)c2ccc(C3=C(C#N)CCCC3)cc2)cs1 [Compound A141, (R)-1-(1-(6′-Cyano-2′,3′,4′,5′-tetrahydro-[1,1′-biphenyl]-4-yl)-2-hydroxyethyl)-3-(2-ethynylthiazol-4-yl)urea] | ≤ 200 nM |
| C#Cc1nc(NC(=O)N[C@@H](CO)c2ccc(C3=C(C#N)CCCC3)cn2)cs1 [Compound A142, (R)-1-(1-(5-(2-Cyanocyclohex-1-en-1-yl)pyridin-2-yl)-2-hydroxyethyl)-3-(2-ethynylthiazol-4-yl)urea] | ≤ 200 nM |
| C#Cc1nc(NC(=O)N[C@@H](CO)c2ccc(C3CCCCN3C(C)=O)cc2)cs1 (stereo partly drawn) [Compound A143, 1-((1R)-1-(4-(1-Acetylpiperidin-2-yl)phenyl)-2-hydroxyethyl)-3-(2-ethynyl-thiazol-4-yl)urea] | ≤ 200 nM |
| C#Cc1nc(NC(=O)N[C@H](CO)C(=O)N2CC(c3ccccc3C#N)C2)cs1 [Compound A144, (R)-1-(1-(3-(2-Cyanophenyl)azetidin-1-yl)-3-hydroxy-1-oxopropan-2-yl)-3-(2-ethynylthiazol-4-yl)urea] | 200 to 1000 nM |
| C#Cc1nc(NC(=O)N[C@@H](CO)C(=O)N2CC(c3ccccc3C#N)C2)cs1 [Compound A145, (S)-1-(1-(3-(2-Cyanophenyl)azetidin-1-yl)-3-hydroxy-1-oxopropan-2-yl)-3-(2-ethynylthiazol-4-yl)urea] | 200 to 1000 nM |
| C#Cc1nc(NC(=O)N[C@H](CO)C(=O)N2CCC(c3ccccc3C#N)CC2)cs1 [Compound A146, (R)-1-(1-(4-(2-Cyanophenyl)piperidin-1-yl)-3-hydroxy-1-oxopropan-2-yl)-3-(2-ethynylthiazol-4-yl)urea] | 200 to 1000 nM |
| C#Cc1nc(NC(=O)N[C@@H](CO)C(=O)N2CCC(c3ccccc3C#N)CC2)cs1 [Compound A147, (S)-1-(1-(4-(2-Cyanophenyl)piperidin-1-yl)-3-hydroxy-1-oxopropan-2-yl)-3-(2-ethynylthiazol-4-yl)urea] | 200 to 1000 nM |
| C#Cc1nc(NC(=O)N[C@H](CO)C(=O)N2CCN(c3ccccc3C#N)CC2)cs1 [Compound A148, (R)-1-(1-(4-(2-Cyanophenyl)piperazin-1-yl)-3-hydroxy-1-oxopropan-2-yl)-3-(2-ethynylthiazol-4-yl)urea] | ≤ 200 nM |
| C#Cc1nc(NC(=O)N[C@@H](CO)C(=O)N2CCN(c3ccccc3C#N)CC2)cs1 [Compound A149, (S)-1-(1-(4-(2-Cyanophenyl)piperazin-1-yl)-3-hydroxy-1-oxopropan-2-yl)-3-(2-ethynylthiazol-4-yl)urea] | ≤ 200 nM |
| C#Cc1nc(NC(=O)N[C@@H](CO)C2CCN(c3ccccc3C#N)CC2)cs1 [Compound A150, (R)-1-(1-(1-(2-Cyanophenyl)piperidin-4-yl)-2-hydroxyethyl)-3-(2-ethynylthiazol-4-yl)urea] | ≤ 200 nM |
| C#Cc1nc(NC(=O)N[C@H](CO)C2CCN(c3ccccc3C#N)CC2)cs1 [Compound A151, (S)-1-(1-(1-(2-Cyanophenyl)piperidin-4-yl)-2-hydroxyethyl)-3-(2-ethynylthiazol-4-yl)urea] | ≤ 200 nM |
| C#Cc1nc(NC(=O)N[C@@H](CO)C(=O)N2CCC3(CC2)CC3)cs1 [Compound A152, (S)-1-(2-Ethynylthiazol-4-yl)-3-(3-hydroxy-1-oxo-1-(6-azaspiro[2.5]octan-6-yl)propan-2-yl)urea] | ≤ 200 nM |
| C#Cc1nc(NC(=O)N[C@@H](CO)C(=O)N2CCC3(CCC3)CC2)cs1 [Compound A153, (S)-1-(2-Ethynylthiazol-4-yl)-3-(3-hydroxy-1-oxo-1-(7-azaspiro[3.5]nonan-7-yl)propan-2-yl)urea] | ≤ 200 nM |

Further lines, results first:

| EC50 | SMILES |
| --- | --- |
| ≤ 200 nM | C#Cc1nc(NC(=O)N[C@@H](CO)C(=O)N2CCC3(CCCC3)CC2)cs1 [Compound A154, (S)-1-(2-Ethynylthiazol-4-yl)-3-(3-hydroxy-1-oxo-1-(8-azaspiro[4.5]decan-8-yl)propan-2-yl)urea] |
| ≤ 200 nM | C#Cc1nc(NC(=O)N[C@H](CO)C(=O)N2CCC3(CCCC3)CC2)cs1 [Compound A155, (R)-1-(2-Ethynylthiazol-4-yl)-3-(3-hydroxy-1-oxo-1-(8-azaspiro[4.5]decan-8-yl)propan-2-yl)urea] |
| ≤ 200 nM | C#Cc1ncc(NC(=O)N[C@@H](CO)C(=O)N2CCC3(CCCC3=O)CC2)s1 [Compound A156, (S)-1-(2-Ethynylthiazol-5-yl)-3-(3-hydroxy-1-oxo-1-(1-oxo-8-azaspiro[4.5]decan-8-yl)propan-2-yl)urea] |
| ≤ 200 nM | C#Cc1nc(NC(=O)N[C@@H](CO)C(=O)N2CCC3(CCCCC3)CC2)cs1 [Compound A157, (S)-1-(2-Ethynylthiazol-4-yl)-3-(3-hydroxy-1-oxo-1-(3-azaspiro[5.5]undecan-3-yl)propan-2-yl)urea] |
| ≤ 200 nM | C#Cc1nc(NC(=O)N[C@@H](CO)C(=O)N2CCC3(CC2)CCC(F)(F)CC3)cs1 [Compound A158, (S)-1-(1-(9,9-Difluoro-3-azaspiro[5.5]undecan-3-yl)-3-hydroxy-1-oxopropan-2-yl)-3-(2-ethynylthiazol-4-yl)urea] |
| > 5000 nM | C#Cc1nc(NC(=O)N[C@@H](CO)C(=O)N2CCC(N3CC(F)(F)C3)CC2)cs1 [Compound A159, (S)-1-(1-(4-(3,3-Difluoroazetidin-1-yl)piperidin-1-yl)-3-hydroxy-1-oxopropan-2-yl)-3-(2-ethynylthiazol-4-yl)urea] |
| 200 to 1000 nM | C#Cc1nc(NC(=O)N[C@H](CO)C(=O)N2CCC(N3CC(F)(F)C3)CC2)cs1 [Compound A160, (R)-1-(1-(4-(3,3-Difluoroazetidin-1-yl)piperidin-1-yl)-3-hydroxy-1-oxopropan-2-yl)-3-(2-ethynylthiazol-4-yl)urea] |
| ≤ 200 nM | C#Cc1nc(NC(=O)N[C@@H](CO)C(=O)N2CCC(F)(F)CC2)cs1 [Compound A161, (S)-1-(1-(4,4-Difluoropiperidin-1-yl)-3-hydroxy-1-oxopropan-2-yl)-3-(2-ethynyl-thiazol-4-yl)urea] |
| ≤ 200 nM | C#Cc1nc(NC(=O)Nc2ncnc3c(F)c(-c4c(F)cccc4OC)c(Cl)cc23)cs1 [Compound A162, 1-(6-Chloro-8-fluoro-7-(2-fluoro-6-methoxyphenyl)quinazolin-4-yl)-3-(2-ethynylthiazol-4-yl)urea] |
| ≤ 200 nM | C#Cc1nc(NC(=O)Nc2ncnc3cc(-c4c(O)cccc4F)ccc23)cs1 [Compound A163, 1-(2-Ethynylthiazol-4-yl)-3-(7-(2-fluoro-6-hydroxyphenyl)quinazolin-4-yl)urea] |
| ≤ 200 nM | C#Cc1nc(NC(=O)Nc2ncnc3c(F)c(-c4cccc5ncsc45)c(Cl)cc23)cs1 [Compound A165, 1-(7-(Benzo[d]thiazol-7-yl)-6-chloro-8-fluoroquinazolin-4-yl)-3-(2-ethynyl-thiazol-4-yl)urea] |
| ≤ 200 nM | C#Cc1nc(NC(=O)Nc2ncnc3cc(-c4cccnc4C4(C#N)CC4)ccc23)cs1 [Compound A166, 1-(7-(2-(1-Cyanocyclopropyl)pyridin-3-yl)quinazolin-4-yl)-3-(2-ethynylthiazol-4-yl)urea] |
| ≤ 200 nM | C#Cc1nc(NC(=O)NCc2ccc(-c3cccc(C4(C#N)CC4)c3)cc2)cs1 [Compound A167, 1-((3′-(1-Cyanocyclopropyl)-[1,1′-biphenyl]-4-yl)methyl)-3-(2-ethynylthiazol-4-yl)urea] |
| ≤ 200 nM | C#Cc1nc(NC(=O)NCc2ccc(-c3cccc(C4(O)CC4)c3)cc2)cs1 [Compound A168, 1-(2-Ethynylthiazol-4-yl)-3-((3′-(1-hydroxycyclopropyl)-[1,1′-biphenyl]-4-yl)methyl)urea] |
| ≤ 200 nM | C#Cc1nc(NC(=O)NCc2ccc(-c3cccc(C(=O)CC)c3)cc2)cs1 [Compound A169, 1-(2-Ethynylthiazol-4-yl)-3-((3′-propionyl-[1,1′-biphenyl]-4-yl)methyl)urea] |
| ≤ 200 nM | C#Cc1nc(NC(=O)NCc2ccc(-c3cccc(C4(O)CCC4)c3)cc2)cs1 [Compound A170, 1-(2-Ethynylthiazol-4-yl)-3-((3′-(1-hydroxycyclobutyl)-[1,1′-biphenyl]-4-yl)-methyl)urea] |
| ≤ 200 nM | C#Cc1nc(NC(=O)NCc2ccc(-c3cccc4nc(N5CC(F)(F)C5)nc(O)c34)cc2)cs1 [Compound A171, 1-(4-(2-(3,3-Difluoroazetidin-1-yl)-4-hydroxyquinazolin-5-yl)benzyl)-3-(2-ethynylthiazol-4-yl)urea] |
| ≤ 200 nM | C#Cc1nc(NC(=O)NCc2ccc(-c3cccc4nc(OCCO)nc(O)c34)cc2)cs1 [Compound A172, 1-(2-Ethynylthiazol-4-yl)-3-(4-(4-hydroxy-2-(2-hydroxyethoxy)quinazolin-5-yl)-benzyl)urea] |
| 200 to 1000 nM | C#Cc1nc(NC(=O)NCc2ccc(-c3cc(N4CCCC4)ccn3)cc2)cs1 [Compound A173, 1-(2-Ethynylthiazol-4-yl)-3-(4-(4-(pyrrolidin-1-yl)pyridin-2-yl)benzyl)urea] |
